Like-named read-outs stand apart in the source and are kept apart here.
Test system: Candida albicans
Experiment: In vivo protection of mice inoculated with Candida albicans (PD50)
Conditions: read-out: PD50
Protocol: The in vivo evaluation of the compounds can be carried out at a series of dose levels by intraperitoneal or intravenous injection or by oral administration, to mice which are inoculated with a strain of Candida albicans. Activity is based on the survival of a treated group of mice after the death of an untreated group of mice following 48 hours observation. The dose level at which the compound provides 50% protection against the lethal effect of the infection (PD50) is noted.
Using the test method described previously in the text, the following PD50 values (mg./kg.) were obtained in mice infected with Candida albicans:-

[1] = mice infected with Candida albicans, dose level giving 50% protection against the lethal effect of the infection, survival after 48 hours observation, route not specified (intraperitoneal, intravenous or oral)

Compound | ED50 [1] [mg/kg] | ED50 (Candida albicans, 48 h) [mg/kg]
Fc1ccc(C(Cl)(Cn2cncn2)C(F)(F)C(F)(F)F)cc1 (centres unmarked) [Example 4] | < 1 | 
Fc1ccc(C(Cl)(Cn2cncn2)C(F)(F)F)cc1 (centres unmarked) [Example 3] | 0.6 | 
FC(F)(F)C(Cl)(Cn1cncn1)c1ccc(Cl)cc1 (centres unmarked) [Example 2] | 0.6 | 
Fc1ccc(C(Cl)(Cn2cncn2)C(F)(F)C(F)(F)C(F)(F)F)c(F)c1 (centres unmarked) [Example 5] |  | < 1
Fc1ccc(C(Cl)(Cn2cncn2)C(F)(F)F)c(F)c1 (centres unmarked) [Example 1, 1-[2-chloro-2-(2,4-difluorophenyl)-3,3,3-trifluoropropyl]-1H-1,2,4-triazole] | 0.15 | 
